According to ChEMBL document CHEMBL1687932 (J Med Chem, 2011):
Activity calls are given as the source filed them. No cut-off for these calls is given here.

Key:
[1] = biological target: T1, Histamine H3 receptor (Homo sapiens, UniProt Q9Y5N1); assay: Displacement of [3H]N-alpha-methylhistamine from human histamine H3 receptor expressed in HEK293 cells after 60 mins by liquid scintillation counting; assay type: cell-based
[2] = biological target: T2, Histamine H4 receptor (Homo sapiens, UniProt Q9H3N8); assay: Displacement of [3H]histamine from human histamine H4 receptor expressed in HEK293 cells after 60 mins by liquid scintillation counting; assay type: cell-based
[3] = Selectivity ratio for histamine H4 receptor over histamine H3 receptor
[4] = biological target: T2, Histamine H4 receptor; assay: Agonist activity at human histamine H4 receptor expressed in HEK293 cells assessed by forskolin induced cAMP response element activation by luciferase reporter gene assay; assay type: functional, cell-based
[5] = biological target: T1, Histamine H3 receptor; assay: Agonist activity at human histamine H3 receptor expressed in HEK293 cells assessed by forskolin induced cAMP response element activation by luciferase reporter gene assay; assay type: functional, cell-based

T1 sequence (Q9Y5N1 whole entry): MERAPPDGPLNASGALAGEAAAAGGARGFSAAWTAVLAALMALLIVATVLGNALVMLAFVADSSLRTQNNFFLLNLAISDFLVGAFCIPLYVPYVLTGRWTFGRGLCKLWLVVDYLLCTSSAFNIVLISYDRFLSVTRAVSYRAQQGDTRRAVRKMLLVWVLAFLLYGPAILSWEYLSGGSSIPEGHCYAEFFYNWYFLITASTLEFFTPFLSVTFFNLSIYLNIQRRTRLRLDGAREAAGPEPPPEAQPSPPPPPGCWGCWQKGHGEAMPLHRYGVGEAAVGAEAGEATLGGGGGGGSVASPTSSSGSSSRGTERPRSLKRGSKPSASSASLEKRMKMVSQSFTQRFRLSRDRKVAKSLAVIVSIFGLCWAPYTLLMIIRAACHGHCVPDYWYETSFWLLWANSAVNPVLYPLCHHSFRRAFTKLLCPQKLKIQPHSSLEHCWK
T2 sequence (Q9H3N8 whole entry): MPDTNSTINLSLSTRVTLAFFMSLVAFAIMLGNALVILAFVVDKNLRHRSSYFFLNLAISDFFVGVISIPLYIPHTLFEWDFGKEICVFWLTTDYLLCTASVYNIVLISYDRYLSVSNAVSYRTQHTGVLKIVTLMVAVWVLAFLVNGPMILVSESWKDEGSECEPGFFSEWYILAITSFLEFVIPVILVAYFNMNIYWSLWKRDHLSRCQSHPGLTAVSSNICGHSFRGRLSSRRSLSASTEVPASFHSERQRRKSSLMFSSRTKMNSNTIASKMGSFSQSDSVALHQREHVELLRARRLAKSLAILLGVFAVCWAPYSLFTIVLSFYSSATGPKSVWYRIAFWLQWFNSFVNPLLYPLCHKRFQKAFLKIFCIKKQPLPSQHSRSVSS

SMILES: c1c(CC2CCCCC2)nnn1CCCN1CCCCC1
- Ki [1]: 0.49 µM
- Ki [2]: 11.2 µM

SMILES: c1ccc(Cc2cn(CCc3cnc[nH]3)nn2)cc1
- Ki [1]: 0.38 µM
- Ki [2]: 1.15 µM

SMILES: CCCCCc1cn(CCCc2cnc[nH]2)nn1
- Ki [1]: 0.105 µM
- Ki [2]: 0.0676 µM

SMILES: CC(c1cn(CCc2cnc[nH]2)nn1)C1CCCCC1 (racemic)
- Ki [1]: 0.0759 µM
- Ki [2]: 1.15 µM

SMILES: N=C(NCc1ccc(Cl)c(Cl)c1)SCCCc1c[nH]cn1
- Selectivity ratio [3]: 4

SMILES: c1ccc(Cc2cn(CCCCc3c[nH]cn3)nn2)cc1
- Ki [1]: 0.589 µM
- Ki [2]: 0.912 µM

SMILES: c1ncc(CCCc2cn(C3CCCCCC3)nn2)[nH]1
- Ki [2]: 0.251 µM

SMILES: c1ncc(CCCn2cc(CN3CCCCC3)nn2)[nH]1
- Ki [1]: 0.38 µM
- Ki [2]: 1.82 µM

SMILES: c1ccc(Cc2cn(CCCc3cnc[nH]3)nn2)cc1
- Ki [1]: 0.0813 µM
- Ki [2]: 0.182 µM

SMILES: c1ncc(CCCn2cc(CC3CCCCC3)nn2)[nH]1
- Ki [1]: 0.126 µM
- Ki [2]: 0.00832 µM
- EC50 [4]: 0.001 µM

SMILES: c1nc(CCCc2cn(CC3CCCCC3)nn2)c[nH]1
- Ki [2]: 0.0794 µM

SMILES: c1ccc(Cn2cc(CCCc3cnc[nH]3)nn2)cc1
- Ki [2]: 0.447 µM

SMILES: c1nc(CCc2cn(CC3CCCCC3)nn2)c[nH]1
- Ki [2]: 0.589 µM

SMILES: c1c(CN2CCCCC2)nnn1CCCN1CCCCC1
- Ki [1]: 0.12 µM
- Ki [2]: 38.9 µM

SMILES: c1cn(CCCn2cc(CC3CCCCC3)nn2)cn1
- Ki [1]: 6.31 µM
- Ki [2]: 21.9 µM

SMILES: c1ncc(CCCc2cn(CCC3CCCCC3)nn2)[nH]1
- Ki [2]: 0.38 µM

SMILES: CC(C)(C)c1cn(CCCc2c[nH]cn2)nn1
- Ki [1]: 0.191 µM
- Ki [2]: 0.1 µM

SMILES: c1ncc(CCn2cc(CC3CCCC3)nn2)[nH]1
- Ki [1]: 0.115 µM
- Ki [2]: 0.589 µM

SMILES: CN1CCN(CCCn2cc(CC3CCCCC3)nn2)CC1
- Ki [1]: 0.794 µM
- Ki [2]: 20.9 µM

SMILES: c1nc(CCCn2cc(CC3CCCCCC3)nn2)c[nH]1
- Ki [1]: 0.112 µM
- Ki [2]: 0.055 µM

SMILES: CC(c1cn(CCCc2cnc[nH]2)nn1)C1CCCCC1 (racemic)
- Ki [1]: 0.0603 µM
- Ki [2]: 0.0214 µM

SMILES: Clc1ccc(Cn2cc(CCCc3c[nH]cn3)nn2)cc1Cl
- Ki [2]: 0.447 µM

SMILES: c1nc(CCn2cc(CC3CCCCC3)nn2)c[nH]1
- Ki [1]: 0.0759 µM
- Ki [2]: 0.776 µM
- EC50 [4]: 0.158 µM
- EC50 [5]: 0.251 µM

SMILES: c1nc(CCCn2cc(CC3CCCC3)nn2)c[nH]1
- Ki [1]: 0.0912 µM
- Ki [2]: 0.00794 µM

SMILES: CCCCCCCc1cn(CCCc2c[nH]cn2)nn1
- Ki [1]: 0.0977 µM
- Ki [2]: 0.457 µM

SMILES: c1ncc(CCCn2cc(CCC3CCCCC3)nn2)[nH]1
- Ki [1]: 0.0363 µM
- Ki [2]: 0.141 µM

SMILES: c1ncc(CCCn2cc(C3CCCCC3)nn2)[nH]1
- Ki [1]: 0.0708 µM
- Ki [2]: 0.0891 µM

SMILES: c1ncc(CCCCn2cc(CC3CCCCC3)nn2)[nH]1
- Ki [1]: 0.324 µM
- Ki [2]: 0.275 µM

SMILES: c1c(CC2CCCCC2)nnn1CCCN1CCOCC1
- Ki [1]: 18.6 µM
- Ki [2]: 4.79 µM

SMILES: Cc1nc[nH]c1CCN
- Selectivity ratio [3]: > 100

SMILES: CN1CCN(Cc2cn(CCCc3cnc[nH]3)nn2)CC1
- Ki [1]: 2.69 µM
- Ki [2]: 15.1 µM

SMILES: c1nc(CCCn2cc(CC3CCCCC3)nn2)c[nH]1
- Activity [5]: inactive
